One data set in a line: L6 cytotoxicity assay. The class given is cell-based, rat. Conditions: rat, mean of duplicate assays.
A further data set deals with Leishmania donovani. Nature of the data set: Antiparasitic assay, Leishmania donovani. The settings on record: for IC50: mean of duplicate assays, read-out: L. Don. IC50. The class given is cell-based. The source says:
(§1) The set of compounds were screened against a panel of four parasitic protozoa: Trypanosoma brucei rhodesiense, Trypanosoma cruzi, Leishmania donovani and Plasmodium falciparum K1 dual drug-resistant strain.
(§2) Detailed protocols for these assays have been described elsewhere.

The next data set has as its system Trypanosoma cruzi. Nature of the data set: Antiparasitic assay, Trypanosoma cruzi. Format: cell-based. The settings on record: for IC50: mean of duplicate assays, read-out: T. Cruzi IC50.
Excerpt: as §1, §2

The test system of data set [1] is Trypanosoma brucei rhodesiense. Briefly: Antiparasitic assay, Trypanosoma brucei rhodesiense. The class given is cell-based. Conditions: for IC50: read-out: T. B. Rhod. IC50.
Excerpt: as §1, §2

In data set [2] the test system is Plasmodium falciparum K1 dual drug-resistant strain. Nature of the data set: Antiparasitic assay, Plasmodium falciparum K1. Conditions: for SI Pf, antiplasmodial selectivity index = L6 IC50/P f. IC50: L6 versus P. falciparum K1. Format: cell-based.
Excerpt: as §1, §2

The conditions of data set [3]: cited from earlier work.
The subject of data set [4] is panel of human tumour cell lines (NCI 60 cell-line panel). Briefly: cells. Conditions: for tumour cell mean growth: preliminary single dose (10 μM) testing. The source says: Protocols of testing at the DTP, NCI have been described elsewhere.
Data set [5] has as its system L6 rat skeletal myoblast cell line. Briefly: L6 cytotoxicity assay. Format: cell-based.
Data set [6] concerns Plasmodium falciparum (Pf) D6 clone. Also on record: method as in PMID 20337497. The settings on record: cited from earlier work.
The test system of another data set is Pf W2 clone. Conditions: cited from earlier work.
The next data set relates to Vero cell line. Also noted: method as in PMID 20337497. Conditions: cited from earlier work.
For data set [7], the system named is non-malignant human keratinocyte cell line. Also on record: method as in PMID 32054048. The settings on record: read-out: human keratinocyte cell line IC50 (cytotoxicity); cited from earlier work.
For data set [8], the system named is human colon tumour cell line HCT-116. The settings on record: read-out: HCT-116 IC50 (cytotoxicity); cited from earlier work.
[9] abbreviates: Trypanosoma brucei, RHODESIENSE, mean of duplicate assays.
Setting [10] is: Plasmodium falciparum, K1, read-out: P. Falc. K1 IC50.
[11] abbreviates: Leishmania donovani, read-out: L. Don. % inhibition.
Setting [12] is: Trypanosoma cruzi, read-out: T. Cruzi % inhibition.
Where [13] appears, read: Plasmodium falciparum, K1, read-out: P. Falc. K1 % inhibition.
Setting [14] is: Trypanosoma brucei, RHODESIENSE

By IC50 is commonly meant the midpoint of a concentration-inhibition curve. By inhibition is commonly meant the drop in the measured response relative to a control, in per cent. One may read the GI50 as the concentration giving 50% growth inhibition.

Like-named read-outs stand apart in the source and are kept apart here.

Turning to `Cn1cnc(SC2[C@H]3C(=O)C=C4S[C@H]5C[C@]42C2=C(N5)C(=O)c4[nH]cc5c4C2=[N+]3CC5)c1C[C@H](N)C(=O)O` (single isomer, unassigned; (+)) [Compound 12, (+)-discorhabdin H2], the IC50 in the data set “L6 cytotoxicity assay” came to 17000 nM; in the data set on Leishmania donovani (Leishmania donovani), 94000 nM; with Trypanosoma cruzi (Trypanosoma cruzi) it was 63000 nM; in [1] (setting [9]), 2300 nM; in data set [2] (setting [10]) it was 12000 nM. Also, the “SI Pf, antiplasmodial selectivity index = L6 IC50/P f. IC50” value in data set [2] stood at 1.4.

For `O=C1C=C2S[C@H]3C[C@]2(C=C1Br)C1=C(N3)C(=O)c2[nH]cc3c2C1=NCC3` [Compound 1, (+)-discorhabdin B], the inhibition at 1.5 µM with Leishmania donovani (setting [11]) came to 57%; in the data set on Trypanosoma cruzi (setting [12]) it was 100%; in [1] (Trypanosoma brucei, RHODESIENSE, read-out: T. B. Rhod. % inhibition) it was 99%; in data set [2] (setting [13]), 100%. For the same compound, the “cytotoxicity (in words, Figure 9)” value in data set [3] is listed as “Cytotoxic”.

For `CCCCCSC1=CC(=O)C(Br)=CC12CCNC1=C2C2=NCCc3c[nH]c(c32)C1=O` (stereo not shown) [Compound 4, Thiopentanyl-Discorhabdin C Adduct], the concentration for 50% growth inhibition (GI50) in data set [4] (Homo sapiens, read-out: GI50 (50% growth inhibition)) amounted to 1400 nM. Also, the CC50 in [4] (Homo sapiens, read-out: LC50 (50% cell kill)) was determined as 10500 nM. Besides, the “TGI (total growth inhibition)” value in [4] (averaged calculated mean over panel, two experiments at the NCI) is 3900 nM.

Regarding `CCCCCNC1[C@@H]2[N+]3=C4C5=C(NCC[C@@]51[C@@H](O)[C@@H](Br)C2(O)O)C(=O)c1[nH]cc(c14)CC3` (stereo partly shown) [Compound 6, Aminopentane Discorhabdin C Dihydrate Adduct], the results for the IC50 (in “L6 cytotoxicity assay”; in data set [2] (setting [10])) were 810 nM and 250 nM, respectively. In addition, in data set [4] (NCI human tumour cell line panel), the “tumour cell line cytotoxicity / antitumour activity (in words)” value is “inactive”. In addition, the “tumour cell mean growth” value in data set [4] is reported as 100.67%. Moreover, the “SI Pf, antiplasmodial selectivity index = L6 IC50/P f. IC50” value in data set [2] is 3.2.

As to `O=C1C2=C3C4=[N+](CCc5c[nH]c1c54)C1(O)CCC3(CCN2)CC1` [Compound 7, Discorhabdin C Hydrogenation Product], the IC50 was 1700 nM in the data set “L6 cytotoxicity assay” (L6 rat skeletal myoblast cells) and 90 nM in data set [2] (Plasmodium falciparum, K1, mean of duplicate assays, read-out: P. Falc. K1 IC50). In addition, the “tumour cell mean growth” value in data set [4] is given as 99.57%. The “SI Pf, antiplasmodial selectivity index = L6 IC50/P f. IC50” value in data set [2] is 19.

With `O=C1C(Br)=CC2(C=C1Br)CCNC1=C2C2=NCCc3cn(C4C5[N+]6=C7C8=C(NCCC84C(O)C(Br)C5(O)O)C(=O)c4[nH]cc(c47)CC6)c(c32)C1=O` (stereo not shown) [Compound 8], the IC50 in the data set “L6 cytotoxicity assay” was 2100 nM; with Leishmania donovani (Leishmania donovani) it was 18700 nM; with Trypanosoma cruzi (Trypanosoma cruzi), 11100 nM; in data set [1] (setting [9]) it was 710 nM; in data set [2] (setting [10]), 6400 nM. Besides, the “activity towards Trypanosoma brucei rhodesiense (in words)” value in data set [1] is recorded as “sub-micromolar”. The “SI Pf, antiplasmodial selectivity index = L6 IC50/P f. IC50” value in [2] is on record as 0.3.

Regarding `O=C1C2=C(C3=NCCc4c[nH]c1c43)C1(C=C(Br)C(O)C(Br)=C1)CCN2` (stereo not shown) [Compound 9, 3-dihydrodiscorhabdin C], the 50% inhibitory concentration (IC50) was 110 nM in [5]; 170 nM in [6]; 130 nM in the data set with Pf W2 clone; 9800 nM in the data set on Vero cell line; 400 nM in data set [2] (mean of duplicate assays, read-out: P. Falc. K1 IC50).

With `O=C1C2=C3C4=[N+](CCc5c[nH]c1c54)[C@@H]1C(=O)C=C4S[C@@H](C[C@@]43C1O)N2` (stereo partly shown) [Compound 14], the half-maximal inhibitory concentration (IC50) in the data set “L6 cytotoxicity assay” was 11000 nM; in [1] (setting [14]), 1300 nM. For the same compound, the inhibition at 1.9 µM (in the data set on Leishmania donovani (setting [11]); in data set [2] (setting [13])) was 20% in each case. Also, in the data set with Trypanosoma cruzi (setting [12]), the inhibition at 12 µM amounted to 9%.

For `CSC1=CC(=O)C(Br)=C[C@]12C=CNC1=C2C2=NCCc3cn(C)c(c32)C1=O` [Compound 16], the IC50 in “L6 cytotoxicity assay” was 6100 nM; in data set [2] (setting [10]), 1700 nM. Besides, the “SI Pf, antiplasmodial selectivity index = L6 IC50/P f. IC50” value in data set [2] is reported as 3.6.

For the compound `O=C1C2=C(C3=NCCc4c[nH]c1c43)c1c(cc(Br)c(O)c1Br)CCN2` [Compound 17], the IC50 in the data set “L6 cytotoxicity assay” was 41000 nM; in data set [7], 560 nM; in data set [1] (setting [9]) it was 330 nM; in data set [8], 160 nM; in data set [2] (setting [10]) it was 80 nM. The inhibition at 0.8 µM amounted to 29% in the data set with Leishmania donovani (Leishmania donovani, at 0.8 μM, read-out: L. Don. % inhibition) and 0% with Trypanosoma cruzi (Trypanosoma cruzi, at 0.8 μM, read-out: T. Cruzi % inhibition). For the same compound, the “activity towards Trypanosoma brucei rhodesiense (in words)” value in [1] is recorded as “sub-micromolar”. In addition, the “SI Pf, antiplasmodial selectivity index = L6 IC50/P f. IC50” value in [2] is recorded as 510.

For the compound `O=C(Cn1ccnc1[N+](=O)[O-])NCc1ccccc1` [benznidazole, reference compound], the IC50 in the data set on Trypanosoma cruzi (Trypanosoma cruzi) came to 1350 nM.

Take `CCN(CC)CCCC(C)Nc1ccnc2cc(Cl)ccc12` (stereo not shown) [chloroquine, reference compound]: the IC50 in data set [2] (setting [10]) amounted to 200 nM.

With `Nc1nc(N)nc(Nc2ccc([As]3SCC(CO)S3)cc2)n1` (stereo not shown) [melarsoprol, reference compound], the IC50 in data set [1] (setting [14]) was 10 nM.

Take `CCCCCCCCCCCCCCCCOP(=O)([O-])OCC[N+](C)(C)C` [miltefosine, reference compound]: the IC50 in the data set on Leishmania donovani (Leishmania donovani) is 520 nM.

Take `COc1cc([C@@H]2c3cc4c(cc3[C@H](O)[C@H]3COC(=O)[C@H]23)OCO4)cc(OC)c1OC` [podophyllotoxin, reference compound]: the concentration for half-maximal inhibition (IC50) in “L6 cytotoxicity assay” came to 10 nM.

Consider discorhabdin U [Compound 15], for which the “L. Don. % inhibition” value in the data set with Leishmania donovani (at 1.5 μM) is 97% (1.5). Moreover, the “T. Cruzi % inhibition” value with Trypanosoma cruzi (at 1.5 μM) is 100% (1.5). For the same compound, the “T. B. Rhod. % inhibition” value in data set [1] (at 1.5 μM) is reported as 100% (1.5). Also, the “P. Falc. K1 % inhibition” value in data set [2] (at 1.5 μM) is 100% (1.5).

(Values after publication PMC7460216 (Marine Drugs, 2020).)
